Experimental data published in US20240285808A1, “MOLECULAR PROBES FOR IN VIVO DETECTION OF ALDEHYDES” (The General Hospital Corporation, priority 2021, published 2024).

How the values were obtained:
[1] = test system: liver of CCl4 injured mice; format: in vivo, mouse; settings: CCl4 injured mice
Description: CCl4 Liver Fibrosis Model:
Male C57BL/6 mice (Charles River Laboratories, Wilmington, MA) were treated with carbon tetrachloride for 12 weeks (0.1 ml of 20% CCl4 in olive oil the first week, 30% the second week, and 40% from weeks 3-12) by oral gavage, 2-3 times per week. Control mice were fed vehicle (olive oil) only.
A total of 53 C57BL/6 mice were included to study CCl4 induced hepatic fibrosis: • A. CCl4 for 12 weeks (n=20). Each mouse was imaged with probe 1 and then imaged again 24 hours later with probe 2. Probe 1 and Probe 2 were randomly chosen from GdDOTA, GdCHyd, Mn-12, Gd-9 and Gd-10. • B. Vehicle treated control (n=20). Each mouse was imaged with probe 1 and then imaged again 24 hours later with probe 2. Probe 1 and Probe 2 were randomly chosen from GdDOTA, Mn-12, GdCHyd, Gd-9, Gd-10. • C. CCl4 for 12 weeks (n=3, another 3 pair-wise comparison have been done in group A). Each mouse was imaged with probe 1 and then imaged again 24 hours later with probe 2. […] Each mouse was imaged with probe 1 and then imaged again 24 hours later with probe 2. Probe 1 and Probe 2 were randomly choosing from Gd-9 and Gd-10. • E. CCl4 for 12 weeks (n=3). Each mouse was imaged with Gd-9. After 24 hours, the same mouse was first injected with 1000 μmol/kg of Yb-9 and then injected with 100 μmol/kg of Gd-9 15 min after the Yb-9 injection.
Animals were anesthetized with isoflurane (1-2%) and placed in a specially designed cradle with body temperature maintained at 37° C. The inhaled isoflurane level was adjusted to maintain a respiration rate of 60±5 breaths per minute. The tail vein was cannulated for intravenous (i.v.) delivery of the contrast agent while the animal was positioned in the scanner. Imaging was performed at 4.7 T using a small bore animal scanner with a custom-built volume coil. Mice were imaged with a dose of 100 μmol/kg from 30 mM stock solution of Gd or Mn complex.
For mice liver imaging, a series of baseline images (3D T1 weighted fast low angle shot magnetic resonance imaging (FLASH)) were first acquired (repetition time/echo time=15/2 ms; flip angle, 30°; field of view, 48×30 mm^2; matrix size, […]; slice thickness, 0.25 mm; acquisition time, 3 minutes 20 seconds), then a bolus of Gd or Mn complex was administered i.v. and imaging performed for a period of 45 min p.i. with the repetition acquisition of 3D T1 weighted FLASH sequences. Following the imaging session, animals were sacrificed (75 min p.i.) and liver tissue was subjected to histopathologic analysis.
For liver imaging analysis, a region of interest (ROI) was manually traced encompassing the liver parenchyma while avoiding major blood vessels. A second ROI was placed on the dorsal muscle visible in the same image slice to quantify the signal intensity in the muscle for comparison. Seven ROIs were placed in the field of view without any tissue (air) to measure the variation in background signal. More than 20 axial slices per mouse across the entire liver were analyzed in this fashion. […] Contrast to noise ratio (CNR) was calculated by measuring the difference in signal intensity (SI) between liver and muscle and normalizing to the standard deviation of the signal in the air, eq 21. ΔCNR was calculated by subtracting CNR measured prior to probe injection (CNRPre) from CNR measured after injection (CNRPost), eq 22. […]

[2] = molecular target: T1, BSA-ALD (oxidized bovine serum albumin containing allysine aldehyde groups) (Bos taurus, UniProt P02769); experiment: Relaxivity measurements with BSA-Ald; format: binding; settings: 1.4 T, 37° C.; for r1, +BSA-Ald: BSA-Ald 10 mg/mL
T1 construct: made in house; host or cells: no expression host: BSA oxidised chemically with sodium ascorbate, ferric chloride and H2O2, then desalted on PD-10
T1 sequence (P02769 25-607): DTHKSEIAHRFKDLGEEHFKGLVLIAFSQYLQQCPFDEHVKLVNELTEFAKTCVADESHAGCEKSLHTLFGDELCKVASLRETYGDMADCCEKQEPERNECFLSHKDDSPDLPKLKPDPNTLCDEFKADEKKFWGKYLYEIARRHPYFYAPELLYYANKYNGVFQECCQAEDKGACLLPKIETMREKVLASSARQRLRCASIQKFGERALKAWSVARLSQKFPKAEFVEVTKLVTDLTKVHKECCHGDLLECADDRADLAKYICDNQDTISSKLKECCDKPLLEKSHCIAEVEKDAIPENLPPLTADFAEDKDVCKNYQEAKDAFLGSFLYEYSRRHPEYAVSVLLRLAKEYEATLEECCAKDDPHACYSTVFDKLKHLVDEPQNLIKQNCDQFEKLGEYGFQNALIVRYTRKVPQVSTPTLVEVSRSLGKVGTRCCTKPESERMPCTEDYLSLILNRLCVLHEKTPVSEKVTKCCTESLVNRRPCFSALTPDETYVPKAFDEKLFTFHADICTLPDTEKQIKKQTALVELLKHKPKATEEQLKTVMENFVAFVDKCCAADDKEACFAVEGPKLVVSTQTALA
Description: Preparation of Allysine Containing Bovine Serum Albumin, BSA-ALD:
To a solution of bovine serum albumin (BSA) (100 mg) dissolved in phosphate buffered saline (4 mL, pH 7.4, 0.25 mM), sodium ascorbate (20 mg), ferric chloride (120 μL, 10 mM) and 20 μL H2O2 (30% w) were added. The reaction was stirred at 37° C. for 24 hours, and sodium ascorbate (20 mg) was added repeatedly every 8 hours. After the reaction, protein was purified using PD-10 Sephadex G25 desalting columns (GE Healthcare), eluted with PBS. Protein concentration was assessed using the ‘BCA Protein Assay Kit’ (Thermo Scientific). Protein carbonyl concentration was determined by ‘Protein Carbonyl Content Assay Kit’ (Sigmal-Aldrich).
Alternatively, preparation of BSA^Ald and binding of Gd^3+ probe to protein was carried out according to modified procedures. To a solution of bovine serum albumin (BSA) (100 mg) dissolved in phosphate buffered saline (4 mL, pH 7.4, 0.25 mM) was added sodium ascorbate (20 mg), ferric chloride (120 μL, 10 mM) and 20 μL H2O2 (30% w). The reaction was stirred at 37° C. for 24 h, and sodium ascorbate (20 mg) was added repeatedly every 8 h. After 24 h, the protein was purified using PD-10 Sephadex G25 desalting columns (GE Healthcare), eluted with PBS. Protein concentration was assessed using the ‘Micro BCA Protein Assay Kit’ (Thermo Scientific, 23235). Protein carbonyl concentration was determined by ‘Protein Carbonyl Content Assay Kit’ (Sigma-Aldrich, MAK094-1KT). […] The protein solutions were kept at a concentration of 20 mg/mL for further use.
(§1) BSA-ALD (10 mg/mL) or BSA (10 mg/mL) were treated for 24 hours at 37° C. with the corresponding Gd or Mn complex at a range of concentrations (0.01-0.2 mM), with a total volume of 300 μL maintained for all samples. After 24 hours, an aliquot of the solution (50 μL) was used for longitudinal (T1) relaxation measurements, recorded using a Bruker mq60 Minispec at 1.41 T and 37° C. Longitudinal (T1) relaxation times were measured via an inversion recovery experiment using 10 inversions of duration ranging between 0.05×T1 and 10×T1. Solutions (concentration range: 0.1 mM-1.0 mM) in PBS were run in parallel. To measure the relaxivity of BSA-bound species, sodium cyanoborohydride (10 mg) was added to the solution to irreversibly bind the probe to the protein. After a further 2h incubation at 37° C., protein-bound and protein-free solutions were separated by ultrafiltration. Then 200 μL PBS was added to the residue to dissolve the protein. Longitudinal (T1) relaxation times for the bounded species were measured using a Bruker mq60 Minispec at 1.41 T and 37° C. After the measurement, concentration of corresponding metal ion (Gd/Mn) in the residue and filter were both determined using an Agilent 8800 ICP-MS system. Relaxivity (r1) was determined from the slope of a plot of 1/T1 vs metal concentration for 5 concentrations.

[3] = molecular target: bovine serum albumin (BSA) (Bos taurus, UniProt P02769); experiment: Relaxivity measurements with BSA; format: binding; settings: 1.4 T, 37° C., BSA 10 mg/mL
Chain of bovine serum albumin (BSA) (P02769 25-607): as above
Description: as §1

[4] = Relaxivity measurements in PBS; format: physicochemical; settings: 1.4 T, 37° C.
Description: as §1

[5] = Reaction rates with butyraldehyde measured by HPLC-ICP-MS (Method B); format: physicochemical; settings: Method b: butyraldehyde 100 μM, probe 25 μM, pH 7.40
Description: Method B: Reaction Rates of Compounds with Butyraldehyde Measured by HPLC-ICP-MS
The reactions were conducted in pH 7.40 phosphate-buffered with butyraldehyde concentration of 100 μM and hydrazine probes at 25 μM. Concentrations of unreacted starting material and condensation products were determined at 10 min time intervals over 2 hours based on their relative integrations. The values were fit to a standard first order rate constant linear equation and the rate constant was extracted from the slope.
Reaction with Butyraldehyde Monitored by HPLC-ICP-MS
Reactions were conducted in pH 7.4 phosphate-buffered saline with butyraldehyde concentration of 100 μM and hydrazine probes at 25 μM. Concentrations of unreacted starting material and condensation products were determined based on their relative integrations at 12 min time intervals over 2 hours.

[6] = Reaction rates with 2-formylpyridine measured by HPLC-ICP-MS (Method A); format: physicochemical; settings: Method a: 2-formylpyridine 1000 μM, probe 25 μM, pH 7.40 PBS
Description: Quantitative Measurement of Reaction Rates with Aldehydes: Method A: Reaction Rates of Compounds with 2-Formylpyridine Measured by HPLC-ICP-MS
Reactivity of aldehyde-binding probes were assessed in pH 7.40 phosphate-buffered saline under pseudo-first order conditions with 2-formylpyridine concentration of 1000 μM and probes at 25 μM. Concentrations of unreacted starting material and condensation products were determined at 12 min time intervals based on their relative integrations. The values were fit to a standard first order rate constant linear equation and the rate constant was extracted from the slope.

[7] = test system: lungs of bleomycin-injured mice; experiment: ^68Ga-7 PET/MRI imaging and organ counts in bleomycin-injured and naïve mice; format: in vivo, mouse; settings: for probe uptake in lungs, PET scans: 55 min p.i.; for probe uptake in lungs, organ counts: 90 min p.i.
Description: Bleomycin-injured mice at 14 days after injury were sedated and then injected with Compound 19, Compound 20, Gd-CHyd (Akam, E. A., et al. Improving the reactivity of hydrazine-bearing MRI probes for in vivo imaging of lung fibrogenesis. Chemical Science 11, 224-231 (2020)) formulated to contain an equal concentration of Eu-DOTA as a non-binding control probe. Animals were then euthanized at 30 minutes after injection. The lungs were harvested separately, along with blood, tail and liver. Each sample was analyzed by ICP-MS for gadolinium and europium content, and the lungs were also assessed for hydroxyproline content. Selectivity is reported as the ratio of Gd to Eu. All animals were dosed via tail vein injection at 100 nmol/g body weight from 30 mM solutions of gadolinium probes with 30 mM Eu-DOTA as determined by ICP-MS. For PET probes, Compounds 1-8 were radiolabeled with either ^68Ga or ^64Cu and the dose was delivered as a bolus injection through tail vein. Animals were euthanized 90 min post injection and their organs and tissues were harvested and counted using a gamma counter. For an imaging study with a PET tracer, animals were injected inside PET/MRI scanner and scanned dynamically for 60 min under anesthesia. The animals were euthanized 90 min post injection and their organs and tissues were counted using a gamma counter. The biodistribution of Mn-15, Mn-16, Mn-17, and Mn-18 was determined by injecting a mixture of ^52/nat complex into naïve mice and activity in each tissue were measured 24 hours post injection.
Probe ^68Ga-7 was synthesized in 5 steps. Male C57BL/6 mice were intratracheally instilled with bleomycin (1.2 U/kg) and imaged after 14 days when allysine levels peak in the lung. Bleomycin injured mice or age-matched controls were placed in a micro-PET/MRI scanner and administered ^68Ga-7 as a bolus via the lateral tail vein and dynamically imaged for 60 minute. At 90 min p.i. animals were euthanized, and their organs were harvested for gamma counting. After gamma counting, lungs were flash-frozen and later analyzed for hydroxyproline (total collagen, fibrosis measure) and allysine content.

## NN1CCN(C(=O)CCC(C(=O)[O-])N2CCN(CC(=O)[O-])CCN(CC(=O)[O-])CCN(C(CCC(=O)N3CCN(N)CC3)C(=O)[O-])CC2)CC1.[Yb+3] (centres unmarked) [Yb-9]
[1]; 10-fold dose (1000 μmol/kg) 15 minutes before Gd-9
  blocking of Gd-9 liver MRI enhancement: completely eliminated liver MRI enhancement with Gd-9

## GdDOTA [reference compound]
[2]
  r1, +BSA-Ald: 4.0 mM⁻¹ s⁻¹
[3]
  r1, +BSA: 4.0 mM⁻¹ s⁻¹
[4]
  r1, PBS: 4.0 mM⁻¹ s⁻¹
[1]; 45 min p.i.
  liver enhancement: no significant liver enhancement
[1]; 45 min post injection, 100 μmol/kg i.v., group mean
  ΔCNR (liver to muscle): 0.1 ± 0.2

## NNC(=O)CCCN1CCN(CCCC(=O)NN)CCN(CC(=O)[O-])CCN(CC(=O)[O-])CC1.[Mn+2] [Mn-14]
[2]
  r1, +BSA-Ald: 2.5 mM⁻¹ s⁻¹
[2]; protein-bound species after NaBH3CN and ultrafiltration
  r1, Bound to BSA-Ald: 7.3 mM⁻¹ s⁻¹
[5]
  k (second order rate constant): 1.4 M⁻¹ s⁻¹
[3]
  r1, +BSA: 1.8 mM⁻¹ s⁻¹
[4]
  r1, PBS: 1.5 mM⁻¹ s⁻¹

## O=C([O-])CN1CCN(CC(=O)[O-])CCN(CC(=O)NCCOCCOCCOCCNC(=O)CN2C(=O)CSC2=S)CC1.[Ga+3] [Ga-4]
[6]
  k (second order rate constant): 0.34 M⁻¹ s⁻¹

## NN1CCN(C(=O)CCOCCOCCOCCOCCNC(=O)CN2CCN(CC(=O)[O-])CCN(CC(=O)[O-])CC2)CC1.[Ga+3] [Ga-1]
[6]
  k (second order rate constant): 0.06 M⁻¹ s⁻¹

## NC(Cn1cccc1)C(=O)NCCOCCOCCOCCNC(=O)CN1CCN(CC(=O)[O-])CCN(CC(=O)[O-])CC1.[Ga+3] (centres unmarked) [Ga-2]
[6]
  k (second order rate constant): 0.11 M⁻¹ s⁻¹

## NNC(CCC(=O)NCCOCCOCCOCCNC(=O)CN1CCN(CC(=O)[O-])CCN(CC(=O)[O-])CC1)C(=O)O.[68Ga+3] (centres unmarked) [^68Ga-7]
[7]; Bleomycin injured mice (n = 5)
  probe uptake in lungs, PET scans: 0.51 % ID/cc
  probe uptake in lungs, organ counts: 2.65 % ID/g
[7]; Naïve mice (n = 4)
  probe uptake in lungs, PET scans: 0.23 % ID/cc
  probe uptake in lungs, organ counts: 0.886 % ID/g
[7]; mouse, in vivo
  uptake in bleomycin injured lung compared to ^68Ga-NODAGA-indole: twice the uptake
[7]; naïve animal
  blood clearance and elimination: rapid blood clearance
